Assay results reported in patent publication US20250353819A1, “ARYL HYDANTOIN COMPOUNDS AND METHODS OF USE” (priority 2022, published 2025).
Where two headings read alike, the source gives them in different places.

Key:
androgen-receptor = assay: DHT-induced (KLK3, FKBP5) and DHT-repressed (ZFP36L1) transcripts in LAPC4 cells; type: cell-based; details: Compound IE up to 10 μM
S. mansoni [1] = details: cited from earlier work
LAPC4 cells = assay: Androgen-dependent cell-based assay (DHT, LAPC4); details: Homo sapiens
Experimental: Androgen-Dependent Cell-based Assay. As described by Jones and Diamond (2008), LAPC4 cells were cultured in phenol red free RPMI 1640 media supplemented with antibiotics and 10% FBS. […] […] Mean-effect plots (log[compound] vs. log[fractional effect]) were generated to determine the IC50 values for each test compound or combinations of test compounds at constant ratios.

[2] = In vitro metabolic stability, human liver microsomes; type: in vitro ADME
Experimental: (§1) In Vitro Metabolic Stability. As described by Charman et al. (2020), metabolic stability assays were performed by incubating test compounds in liver microsomes at 37° C. and 0.4 mg/mL protein concentration. The metabolic reaction was initiated by the addition of an NADPH-regenerating system and quenched at various time points over a 60 min incubation period by the addition of acetonitrile containing diazepam as internal standard. Control samples (containing no NADPH) were included (and quenched at 2, 30 and 60 min) to monitor for potential degradation in the absence of cofactor.

[3] = Partition coefficient (Log D) by gradient HPLC; type: physicochemical
Description: Partition Coefficient. Partition coefficient values (Log D) of the test compounds were estimated by correlation of their chromatographic retention properties against the characteristics of a series of standard compounds with known partition coefficient values using gradient HPLC (modification of a method reported by Lombardo et al., 2001).

[4] = Mouse exposure / pharmacokinetic studies; type: in vivo, mice; details: male, Swiss outbred, mouse, in vivo
S. mansoni [5] = assay: Antischistosomal screen in S. mansoni-infected mice; type: in vivo, Schistosoma mansoni; details: for ED50: Schistosoma mansoni; for Worm burden reduction (WBR): single oral dose Ro 13-3978 100 mg/kg, praziquantel 400 mg/kg
Description: Antischistosomal Screen. […] As described by Lombardo et al. (2019), cercariae of S. mansoni were obtained from infected Biomphalaria glabrata. By way of example, NMRI mice were infected subcutaneously with approximately 100 S. mansoni cercariae. […] Untreated mice (n=8) served as controls. At 21 d post-treatment, animals were killed by the CO2 method and dissected. Worms were removed by picking, then sexed and counted.

[6] = In vitro metabolic stability, mouse liver microsomes; type: in vitro ADME
Experimental: as §1

[7] = Kinetic solubility (nephelometry); type: physicochemical
Experimental: Kinetic Solubility. Compounds in DMSO (10 mg/mL) were diluted into either pH 6.5 phosphate buffer or 0.01 M HCl (approx. pH 2.0) with the final DMSO concentration being 1%. Samples were then analysed via nephelometry to determine a solubility range (Bevan and Lloyd, 2000).

[8] = pH 7.4, chromatographic estimate, read-out: gLogD7.4
[9] = DHT-induced, androgen-dependent LAPC4 prostate cancer cell line, read-out: LAPC4 IC50
[10] = adult stage, single oral dose, mouse model, read-out: S. mansoni ED50, adult
[11] = juvenile stage, single oral dose, mouse model, read-out: S. mansoni ED50, juvenile

Which “levels of DHT-induced (KLK3, FKBP5) and DHT-repressed (ZFP36L1) transcripts” value (androgen-receptor) does the source give for `CC1(C)NC(=O)N(c2ccc([N+](=O)[O-])c(C(F)(F)F)c2)C1=O` [nilutamide, reference compound] here?
The value was “inhibited the DHT-induced increase of KLK3 and FKBP5 and prevented the repression of ZFP36L1”.

And the antischistosomal activity (S. mansoni [1]; Keiser et al., 2010)?
The antischistosomal activity was “very weak”.

For `CC1(C(F)(F)F)NC(=O)N(c2ccc(F)c(C(F)(F)F)c2)C1=O` (stereo not drawn) [IA, 3-(4-Fluoro-3-(trifluoromethyl)phenyl)-5-methyl-5-(trifluoromethyl)imidazolidine-2,4-dione], which IC50 (LAPC4 cells; LAPC4, read-out: LAPC4 IC50) is on record?
The IC50 was 5.2 µM.

What about the microsomal CLint ([2]; human liver microsomes, read-out: h CLint) of the same compound?
The microsomal CLint was < 7 µL/min/mg.

What about the chromatographic logD [3, 8] of the same compound?
The chromatographic logD was 3.5.

And the AUC(0-t) ([4]; 100 mg/kg PO in mice, read-out: AUC0-last)?
Its AUC(0-t) is 966 µg·h/mL.

And the Cmax ([4]; 100 mg/kg PO in mice, read-out: Cmax)?
The Cmax was 28000 ng/mL.

What about the ED50 (S. mansoni [5]; po, read-out: S. mansoni ED50, adult) of the same compound?
Its ED50 is 14 mg/kg.

What about the ED50 (S. mansoni [5]; po, read-out: S. mansoni ED50, juvenile) of the same compound?
Its ED50 is 70 mg/kg.

And the microsomal CLint ([6]; mouse liver microsomes, read-out: m CLint)?
Its microsomal CLint is < 7 µL/min/mg.

What about the Sol2.0 ([7]; kinetic solubility, 0.01 M HCl (approx. pH 2.0)) of the same compound?
Its Sol2.0 is 25-50/25-50 μg/mL.

What about the Sol6.5 ([7]; kinetic solubility, pH 6.5 phosphate buffer) of the same compound?
Its Sol6.5 is 25-50/25-50 μg/mL.

Which “Worm burden reduction (WBR)” value (S. mansoni [5]; NOD-SCID (Prkdc^scid) mice) does the source give for `O=C(C1CCCCC1)N1CC(=O)N2CCc3ccccc3C2C1` (stereo not drawn) [Praziquantel, praziquantel, reference compound] here?
The value was 83%.

What about the “Worm burden reduction (WBR)” value (S. mansoni [5]; NOD-SCID (Prkdc^scid) mice, listed as Praziquantel (PZQ)) of the same compound?
The value was 83%.

And the “Worm burden reduction (WBR)” value (S. mansoni [5]; outbred NMRI mice)?
The value was 96%.

And the “activity against juvenile stages of the parasite” value (S. mansoni [1]; schistosome mouse model, literature)?
The value was “no significant activity”.

Which results are given for `CC1(C(F)F)NC(=O)N(c2ccc(F)c(C(F)(F)F)c2)C1=O` (stereo not drawn) [ID, 5-(Difluoromethyl)-3-(4-fluoro-3-(trifluoromethyl)phenyl)-5-methylimidazolidine-2,4-dione]?
IC50 (LAPC4 cells; [9]): 4.2 µM; microsomal CLint ([2]; human, microsomes): < 7 µL/min/mg; chromatographic logD ([3]; pH 7.4): 3.2; AUC(0-t) ([4]; po, 100 mg/kg): 1650 µg·h/mL; Cmax ([4]; po, 100 mg/kg): 42000 ng/mL; ED50 (S. mansoni [5]; [10]): 9 mg/kg; ED50 (S. mansoni [5]; [11]): 88 mg/kg; microsomal CLint ([6]; mouse, microsomes): < 7 µL/min/mg; Sol2.0 ([7]; pH 2): 50-100/50-100 μg/mL; Sol6.5 ([7]; pH 6.5): 50-100/50-100 μg/mL

For `[2H]C([2H])([2H])C1(C([2H])([2H])[2H])NC(=O)N(c2ccc(F)c(C(F)(F)F)c2)C1=O` [IB, 3-(4-Fluoro-3-(trifluoromethyl)phenyl)-5,5-bis(methyl-d3)imidazolidine-2,4-dione], which IC50 (LAPC4 cells; [9]) is on record?
The IC50 was 13 µM.

What about the microsomal CLint ([2]; human, microsomes) of the same compound?
The microsomal CLint was < 7 µL/min/mg.

And the chromatographic logD [3, 8]?
The chromatographic logD was 2.7.

What about the AUC(0-t) ([4]; po, 100 mg/kg) of the same compound?
Its AUC(0-t) is 1820 µg·h/mL.

And the Cmax ([4]; po, 100 mg/kg)?
The Cmax was 43000 ng/mL.

And the ED50 (S. mansoni [5]; [10])?
Its ED50 is 7.3 mg/kg.

And the ED50 (S. mansoni [5]; [11])?
The ED50 was 73 mg/kg.

And the microsomal CLint ([6]; mouse, microsomes)?
The microsomal CLint was < 7 µL/min/mg.

And the Sol2.0 ([7]; pH 2)?
Its Sol2.0 is >100/>100 μg/mL.

What about the Sol6.5 ([7]; pH 6.5) of the same compound?
Its Sol6.5 is >100/>100 μg/mL.
